The nature of series [1]: Test C: Pharmacokinetic analysis following intravenous administration to Sprague-Dawley rats. In kind it is in vivo. Conditions: for clearance: read-out: Rat CL (converted); for AUC(0-inf): t = 0 to infinity, read-out: Rat AUCinf; for Cmax: maximum plasma concentration.
Text: (§1) Test C. Pharmacokinetic Analysis Following Intravenous Administration to Sprague-Dawley Rats and Beagle Dogs and Cynomologous Monkeys
All IV formulations were in solution.
(§2) Each rat IV dosing group consisted of 3 male SD rats. […] The animals were fasted overnight prior to dose administration and up to 4 hr after dosing. Each dog IV dosing group consisted of 3 male, naïve beagle dogs. At dosing, the animals weighed ˜10-12 kg. The animals were fasted overnight prior to dose administration and up to 2 hr after dosing.
(§3) For the IV infusion group, the test compound was administered by intravenous infusion over 30 minutes. The rate of infusion was adjusted according to the body weight of each animal to deliver a dose of 1 mg/kg at 2 mL/kg.
(§4) Serial venous blood samples (approximately 0.4 mL each for rat and 1.0 mL for dog) were taken at specified time points after dosing from each animal. The blood samples were collected into Vacutainer™ tubes (Becton-Dickinson Corp, New Jersey, USA) containing EDTA as the anti-coagulant and were immediately placed on wet ice pending centrifugation for plasma. Centrifugation began within 1 hour of collection. All samples were placed into 96-well tubes and maintained on dry ice prior to storage at approximately −70° C.
(§5) An LC/MS/MS method was used to measure the concentration of test compounds in plasma.
(§6) Non-compartmental pharmacokinetic analysis was performed on the plasma concentration-time data.
Another series deals with HIV-IIIb. As to the kind of experiment: Test A: Antiviral Assay in MT4 Cells. In kind it is cell-based, HIV-1.
Series [2] in a line: Test B: Cytotoxicity Assay. The note with it: human.
Experimental: Compound cytotoxicity and the corresponding CC50 values was determined using the same protocol as described in the antiviral assay (Test A) except that uninfected cells were used.
The nature of series [3]: Test C: Pharmacokinetic analysis following intravenous administration to cynomolgus monkeys. The note with it: male, cynomolgus monkey, 1 mg/kg; for AUC(0-inf): t = 0 to infinity, read-out: Cyno AUCinf; for Cmax: maximum plasma concentration, read-out: Cyno Cmax. In kind it is in vivo, cynomolgus (cyno) monkey.
Experimental: as §1
All IV formulations were in solution.
Each cynomolgus (cyno) monkey IV dosing group consisted of 3 male, naïve cyno monkeys At dosing, the animals weighed ˜3.2-4 kg. The animals were fasted overnight prior to dose administration and up to 2 hr after dosing.
as §3, §4, §5, §6
For a further series, the system named is Human Liver Hepatocytes. Description: Test D: Metabolic Stability in Cultured Human Liver Hepatocytes. The series is classed as in vitro ADME. The note with it: pooled cryopreserved hepatocytes, […] radiolabelled compound, 0-6 hours; calculated from stability data.
The nature of series [4]: Test C: Pharmacokinetic analysis following intravenous administration to beagle dogs. The series is classed as in vivo.
Text: as §1
All IV formulations were in solution.
as §2, §3, §4, §5, §6
Setting [5] is: male, Sprague-Dawley, rat, plasma, iv, 1 mg/kg.
Setting [6] is: male, Sprague-Dawley, rat, plasma, IV infusion over 30 minutes, 1 mg/kg.
Where [7] appears, read: male, Sprague-Dawley, rat, IV infusion over 30 minutes, 1 mg/kg.
The mark [8] stands for this setting: plasma, IV infusion over 30 minutes.
The mark [9] stands for this setting: Human immunodeficiency virus 1, IIIB, MT4, 120 h.

Read-outs that look alike come from different tables or passages of the source.

Experimental for HIV-IIIb: 1 mL Aliquots of MT4 cells were pre-infected for 3 hours at 37° C. with 25 μL of cell growth medium (mock-infected) or a fresh 1:250 dilution of an HIV-IIIb concentrated ABI stock (0.004 m.o.i.). Infected and uninfected cells were diluted in cell growth media and 35 μL (2000 cells) was added to each well of the assay plates.
Assay plates were then maintained in a humidified, 5% CO2 incubator at 37° C. After 5 days of incubation, 25 μl of 2× concentrated CellTiter-Glo™ Reagent (catalog #G7573, Promega Biosciences, Inc., Madison, Wis.) was added to each well of the assay plate. Cell lysis was carried out by incubating at room temperature for 10 minutes and then chemiluminescence was read using an Envision plate reader (PerkinElmer).
Experimental for Human Liver Hepatocytes: Test D. Metabolic Stability in Cultured Human Liver Hepatocytes
The final hepatocyte concentration was 1 million cells/mL. The hepatocyte/compound reaction mixture was dissolved in InVitroGRO™ KHB buffer (catalog #Z99074, BioreclamationIVT, Inc., Baltimore, Md.) at pH 7.4. The incubations were performed in duplicate. A cell free control and a positive control were included in the incubations. The incubations were carried out with gentle shaking in a 37° C. incubator under a humid atmosphere of 95% air/5% CO2 (v/v). Aliquots (100 mL) were removed after 0, 1, 3, and 6 hours and added to 200 mL quenching solution that comprised 0.1% (v/v) TFA in 5% water/95% acetonitrile (v/v). The samples were placed on a shaker for 10 min, followed by centrifugation at 3000 g for 30 min. The samples of the supernatant were analyzed on a Dionex HPLC/PerkinElmer Flow Scintillation Analyzer as described below.
The column was a Phenomenex Synergi fusion RP (150×4.6 mm, 4 mm) maintained at 32 degrees Celsius. Mobile Phase A consisted of 0.1% (v/v) TFA in 99% water/1% acetonitrile (v/v). Mobile Phase B consisted of 0.1% (v/v) TFA in 5% water/95% acetonitrile (v/v). […]
Metabolic stability was determined by measuring the change in relative abundance of metabolites and parent over time and calculating from it the rate of disappearance of the parent compound. […]

Turning to `CC(C)(C#Cc1ccc(-c2ccc(Cl)c3c(NS(C)(=O)=O)nn(CC(F)(F)F)c23)c([C@H](Cc2cc(F)cc(F)c2)NC(=O)Cn2nc(C(F)(F)F)c3c2C(F)(F)[C@@H]2C[C@H]32)n1)S(C)(=O)=O` [Compound 24, N—((S)-1-(3-(4-chloro-3-(methylsulfonamido)-1-(2,2,2-trifluoroethyl)-1H-indazol-7-yl)-6-(3-methyl-3-(methylsulfonyl)but-1-yn-1-yl)pyridin-2-yl)-2-(3,5-difluorophenyl)ethyl)-2-((3bS,4aR)-5,5-difluoro-3-(trifluoromethyl)-3b,4,4a,5-tetrahydro-1H-cyclopropa[3,4]cyclopenta[1,2-c]pyrazol-1-yl)acetamide], in series [1] (setting [5]), the clearance was 0.833 mL/min/kg. The values for the AUC(0-inf) in series [1] (setting [6]) and in series [3] (setting [8]) were 19 µM·h and 4.5 µM·h, respectively. Also, the Cmax was 1800 nM in series [1] (setting [7]) and 1300 nM in series [3] (IV infusion over 30 minutes). In the series with HIV-IIIb (Human immunodeficiency virus 1, 120 h, MT4 cells infected with HIV-IIIb, 5 days incubation, CellTiter-Glo, read-out: EC50), the EC50 amounted to 0.185 nM. The compound further yielded a CC50 at 5 days in series [2] (uninfected MT4 cells) of 30100 nM. For the same compound, the “Predicted Human Hepatic Clearance” value with Human Liver Hepatocytes is 0.17 mL/min/kg.
On to `CC(C)(C#Cc1ccc(-c2ccc(Cl)c3c(NS(=O)(=O)C4CC4)nn(CC(F)F)c23)c([C@H](Cc2cc(F)cc(F)c2)NC(=O)Cn2nc(C(F)F)c3c2C(F)(F)[C@@H]2C[C@H]32)n1)S(C)(=O)=O` [Compound 38, N—((S)-1-(3-(4-chloro-3-(cyclopropanesulfonamido)-1-(2,2-difluoroethyl)-1H-indazol-7-yl)-6-(3-methyl-3-(methylsulfonyl)but-1-yn-1-yl)pyridin-2-yl)-2-(3,5-difluorophenyl)ethyl)-2-((3bS,4aR)-3-(difluoromethyl)-5,5-difluoro-3b,4,4a,5-tetrahydro-1H-cyclopropa[3,4]cyclopenta[1,2-c]pyrazol-1-yl)acetamide], for which the clearance was 1.33 mL/min/kg in series [1] (setting [5]); 3.5 mL/min/kg in series [3] (plasma, iv, read-out: Cyno CL (converted)); 5.5 mL/min/kg in series [4] (male, beagle, dog, plasma, iv, 1 mg/kg, read-out: Dog CL (converted)). Besides, the half-life in series [1] (male, Sprague-Dawley, rat, plasma, iv, 1 mg/kg, read-out: Rat t1/2 (converted)) is 19 h; in series [3] (plasma, iv, read-out: Cyno t1/2 (converted)) it was 9.5 h; in series [4] (male, beagle, dog, plasma, iv, 1 mg/kg, read-out: Dog t1/2 (converted)) it was 7 h. Further, the AUC(0-inf) in series [1] (setting [6]) amounted to 13 µM·h; in series [3] (setting [8]) it was 4.9 µM·h; in series [4] (male, beagle, dog, plasma, IV infusion over 30 minutes, 1 mg/kg, t = 0 to infinity, read-out: Dog AUCinf) it was 3.3 µM·h. Besides, the Vd in series [1] (male, Sprague-Dawley, rat, plasma, IV infusion over 30 minutes, 1 mg/kg, volume of distribution at steady state, read-out: Rat Vss) is 1.8 L/kg; in series [3] (plasma, IV infusion over 30 minutes, volume of distribution at steady state, read-out: Cyno Vss), 2.1 L/kg; in series [4] (male, beagle, dog, plasma, IV infusion over 30 minutes, 1 mg/kg, volume of distribution at steady state, read-out: Dog Vss) it was 1.77 L/kg. The Cmax turned out to be 2400 nM in series [1] (setting [7]); 1300 nM in series [3] (IV infusion over 30 minutes); 1600 nM in series [4] (male, beagle, dog, IV infusion over 30 minutes, 1 mg/kg, maximum plasma concentration). In addition, the “times longer in vivo terminal half-life in rat relative to compound A” value in series [1] (relative to compound A) is reported as “about 9.5 times”. Further, the “times lower in vivo clearance in rat relative to compound A” value in series [1] (relative to compound A) is reported as “about 6.3 times”. In addition, the “times longer in vivo terminal half-life in rat relative to compound B” value in series [1] (relative to compound B) is given as “about 6.3 times”. For the same compound, in series [1] (relative to compound B), the “times lower in vivo clearance in rat relative to compound B” value is “about 5.4 times”. The EC50 in the series with HIV-IIIb (setting [9]) turned out to be 0.399 nM. In addition, in the series with HIV-IIIb (relative to compound A), the “times more potent in HIV antiviral assay relative to compound A” value was “about 4 times”. Besides, the “times more potent in HIV antiviral assay relative to compound B” value in the series with HIV-IIIb (relative to compound B) is listed as “about 8 times”. Moreover, the CC50 at 5 days in series [2] came to 55200 nM. The “in vivo clearance and terminal half-life in dog compared to compounds A and B” value in series [4] (compared to compounds A and B) is on record as “similar”.
In turn, `Cn1nc(NS(C)(=O)=O)c2c(Cl)ccc(-c3ccc(C#CC(C)(C)O)nc3[C@H](Cc3cc(F)cc(F)c3)NC(=O)Cn3nc(C(F)(F)F)c4c3C(F)(F)[C@@H]3C[C@H]43)c21` [Compound B, reference compound] came in with a concentration giving a half-maximal response (EC50) in the series on HIV-IIIb (setting [9]) of 2.99 nM.

Values taken from patent US10071985B2, “Therapeutic compounds” (Gilead Sciences, Inc., priority 2016, dated 2018).
